Experimental data reported in patent publication US20060074109A1, “Use of inhibitors of 24-hydroxylase in the treatment of cancer” (Sapphire Therapeutics, Inc., priority 2004, published 2006).

Columns and labels:
[1] = system: OVCAR-3 cells; test: Cell growth assay, crystal violet, 11 days; assay type: cell-based, human; settings: for effect on growth inhibition: Experiment V
Experimental: (§1) The human ovarian adenocarcinoma cell line, OVCAR-3 (ATCC, Manassas, Va.) was maintained, as recommended by the supplier, in RPMI 1640 medium (Sigma Aldrich, St. Louis, Mo.) supplemented with 10% FBS, 10 μg/ml insulin, 0.25% glucose and antibiotics (100 IU/ml penicillin, 100 μg/ml streptomycin). Human ovarian adenocarcinoma cell lines UT-OC-1, UT-OC-2, UT-OC-3, UT-OC-4, UT-OC-5 (Grenman, S., Engblom, P., Rantanen, V., Klemi, P. and Isola, J., “Cytogenetic Characterization of Five New Ovarian Carcinoma Cell Lines,” Acta Obstet. Gynecol. Scand., 76:83 (1997)) and SK-OV-3 and a human keratinocyte cell line HaCaT were grown in DMEM (Sigma Aldrich) with 10% FBS and antibiotics (100 IU/ml penicillin, 100 μg/ml streptomycin), and monkey kidney COS cells were maintained in DMEM/F12 (Sigma Aldrich) with 5% FBS. All cell lines were kept at 37° C. in a humidified 95% air/5% CO2 incubator.
(§2) When OVCAR-3 cells were on the logarithmic growth phase (70% confluent) the growth assay was started. For cell growth assay, 2,000 cell/200 μl/well were plated on 96-well culture plates. […] Ethanol was used as a vehicle, and it was also included in the control. The medium containing ethanol vehicle and/or hormones were changed to a fresh one every third day. Cell growth samples were taken 0, 1, 3, 5, 7, 9 and 11 days after the treatment.
(§3) Relative cell numbers were quantified as described previously (Kueng W, Silber E, Eppenberger U. Quantification of cells cultured on 96-well plates. Anal. Biochem., 182:16-9 (1989)). Cells were fixed on the bottom of the wells by addition of 10 μl of 11% glutaraldehyde solution in 0.1% phosphate buffer to 100 μl of medium. The plate was shaken 500 cycles/min for 15 min, washed 3 times by submersion in de-ionised water and air-dried. Fixed cells were stained with 0.1% solution of crystal violet dissolved in de-ionised water. After 20 min incubation, excess dye was removed by carefully washing with de-ionised water. The plate was air-dried prior to a bound dye solubilisation in 100 μl of 10% acetic acid. Relative cell number was given as absorbance units by measuring the optical density (590 nm) from each well using Victor 1420 multilabel counter (Wallac, Turku, Finland). Six determinations were used to calculate the mean optical density ±SD in each concentration at each time point. The absorbance value of day 0 (an overnight culture of 2,000 cells/well) was set as 0 by subtracting it from each value obtained from adjacent time-point measurements (days 1-11), and based on these values growth curves were created. Experiments were repeated 3-5 times. Day 11 was used to compare the effect of hormone treatments and 24OHase inhibitor. Statistical analyses were done using Student's t-test.
The cell growth response was determined as described in Experiment I. Briefly, cells were treated with indicated hormone concentrations or combinations of hormone and 24OHase inhibitor (VID400) for 11 days. The growth medium and hormones were changed to a fresh one every third day. After the treatment period, cells were fixed, stained with crystal violet, and the optical density (590 nm) was determined. The cell growth is presented as a percentage of ethanol-treated cells. The values represent the mean of 3 separate experiments ±SD. (*p<0.05, **p<0.001, ***p<0.0001, Student's t-test).
(§4) Cell growth samples were obtained after 11 days treatment.

[2] = system: 24OHase mRNA in OVCAR-3 cells; test: Quantitative RT-PCR of 24OHase mRNA; assay type: cell-based, human; settings: 100 nM
Experimental: Ethanol was used as a vehicle, and it was also added to the control cells. For RNA extraction, the cells were collected 4, 6 and 24 hr after the treatment with vitamin D compound or vehicle. RNA extractions were done with TRIZOL reagent (GIBCO Invitrogen Corporation, Paisley, UK). The integrity of RNA samples was confirmed on gel electrophoresis. […] The reactions for 24-hydroxylase were performed in the LightCycler instrument (Roche Diagnostics, Basel, Switzerland) from 300 ng total RNA. PBGD (human porphobilinogendeaminase) mRNA was used as an […] control. […] Nucleotides, Tth DNA polymerase (DNA polymerase and reverse transcriptase activity), SYBR Green I and reaction buffer were included in the LightCycler-RNA Master SYBR Green I kit (Roche Diagnostics). […] Cell. […] Detection of fluorescent product was performed at the end of the extension step of each cycle. To verify the specific products, melting curve analysis and gel electrophoresis were done. The data were quantified by the Fit Points method with LightCycler Data Analysis software. […] Hormone treatments and RT-PCR were done twice.

[3] = system: CWR22Rv-1 prostate cancer cells; test: Cell growth, methylene blue uptake (Experiment VI); assay type: cell-based; settings: VID400+calcitriol
Experimental: (§5) Culture conditions were the same as for Experiment I. Cell growth was measured using uptake of methylene blue (0.5% in 50% ethanol), followed by air drying and release of the dye in 1% sodium N-lauroyl sarcosine in PBS.

[4] = system: DU145 prostate cancer cells; test: Cell growth, methylene blue uptake (Experiment VI); assay type: cell-based; settings: VID400+calcitriol
Experimental: as §5

[5] = system: PC3 prostate cancer cells; test: Cell growth, methylene blue uptake (Experiment VI); assay type: cell-based; settings: VID400+calcitriol
Experimental: as §5

[6] = system: UT-OC-1 cells; test: Cell growth assay, crystal violet, 11 days; assay type: cell-based, human
Experimental: as §1, §2, §3, §4

[7] = system: SK-OV-3 cells; test: Cell growth assay, crystal violet, 11 days; assay type: cell-based, human
Experimental: as §1, §2, §3, §4

[8] = system: UT-OC-3 cells; test: Cell growth assay, crystal violet, 11 days; assay type: cell-based, human; settings: 200 nM VID 400 combined with vitamin D or retinoid compounds
Experimental: as §1, §2, §3, §4

[9] = system: UT-OC-2 cells; test: Cell growth assay, crystal violet, 11 days; assay type: cell-based, human; settings: 200 nM VID 400 combined with vitamin D or retinoid compounds
Experimental: as §1, §2, §3, §4

[10] = system: UT-OC-4 cells; test: Cell growth assay, crystal violet, 11 days; assay type: cell-based, human
Experimental: as §1, §2, §3, §4

[11] = system: UT-OC-5 cells; test: Cell growth assay, crystal violet, 11 days; assay type: cell-based, human; settings: 200 nM VID 400 combined with hormones, especially 1,25(OH)2D3 or EB 1089, 11 days
Experimental: as §1, §2, §3, §4

C=C1CC[C@H](O)C/C1=C/C=C1\CCC[C@]2(C)[C@@H]([C@H](C)CCCC(C)(C)O)CC[C@@H]12 [25(OH)D3, monohydroxyvitamin D3] was tested, and the “stimulated growth compared to the control” value ([1]; 10 nM, 11 days) was 32%, the “stimulated growth compared to the control” value ([1]; 50 nM, 11 days) was 41% and the “stimulated growth compared to the control” value ([1]; 100 nM alone, 11 days, Experiment IV, not statistically significant) was 18%. The “stimulated growth compared to the control” value ([1]; 100 nM, 11 days, Experiment I) was 39%, the “stimulated growth compared to the control” value ([1]; 200 nM, 11 days) was 35% and the “stimulated growth compared to the control” value ([1]; 500 nM, 11 days) was 11%. The “induction of 24OHase mRNA expression” value ([2]; 6 hr treatment) was 3 fold and the “induction of 24OHase mRNA expression” value ([2]; 24 hr treatment) was 0.5 fold.

O=C(NC[C@@H](c1ccccc1)n1ccnc1)c1ccc(-c2ccc(Cl)cc2)cc1 [VID400, 2-(R)-4′-Chlorobiphenyl-4-carboxylic acid (2-imidazol-1-yl-2-phenyl-ethyl)-amide] was tested, and the “effect on cell growth” value [3] was “synergistic inhibition of growth”, the “effect on cell growth” value [4] was “synergistic inhibition of growth” and the “effect on cell growth” value [5] was “synergistic inhibition of growth”. The “growth inhibition compared to the control” value ([1]; 200 nM VID400 alone, 11 days, Experiment IV) was 8%, the “growth inhibition compared to the control” value ([1]; 200 nM VID400 combined with 1 nM 1,25(OH)2D3, 11 days) was 27% and the “growth inhibition compared to the control” value ([1]; 200 nM VID400 combined with 10 nM 1,25(OH)2D3, 11 days) was 77%. For the same compound, the “effect on growth inhibition” value ([1]; 200 nM VID 400 combined with 10 nM 1,25(OH)2D3, 11 days) was “clearly enhanced the growth inhibition”, the “growth inhibition compared to the control” value ([1]; 200 nM VID400 combined with 100 nM 25(OH)D3, 11 days) was 14% and the “effect on growth inhibition” value ([1]; 200 nM VID 400 combined with EB 1089, 11 days) was “had no additional effect on cell growth inhibition”. For the same compound, the “effect on growth inhibition” value ([1]; 200 nM VID 400 combined with retinoids, 11 days) was “slightly augmented the growth inhibition”, the “inhibition of cell growth” value ([6]; 200 nM VID 400 combined with 100 nM EB 1089, 11 days) was “did so” and the “effect on growth inhibition” value ([6]; 200 nM VID 400 combined with 10 μM 9-CRA, 11 days) was “augmented the growth inhibition”. For the same compound, the “augmentation of growth inhibition” value ([6]; 200 nM VID 400 combined with 10 μM ATRA, 11 days) was “not seen”, the “effect on growth inhibition” value ([7]; 200 nM VID 400 combined with 9-CRA) was “potentiated this effect” and the “effect on cell growth” value ([7]; 200 nM VID 400 combined with vitamin D compounds) was “slightly inhibitory effect on growth”. For the same compound, the “effect on cell growth” value [8] was “growth inhibition was seen”, the “effect on cell growth” value [9] was “growth inhibition was seen” and the “effect on cell growth” value ([10]; 200 nM VID 400 combined with 100 nM 1,25(OH)2D3 or EB 1089, 11 days) was “cell growth was inhibited”. The “effect on growth inhibition” value ([10]; 200 nM VID 400 combined with 10 μM ATRA or 9-CRA, 11 days) was “potentiated this effect” and the “effect on cell growth” value [11] was “had an inhibitory effect on growth”.
